Source: patent US11180510B2, “Xanthine derivatives and uses thereof as inhibitors of bromodomains of BET proteins” (Centre national de la recherche scientifique, priority 2017, dated 2021)
pIC50, pKd: −log10 of the molar value. “And” between values parts separate entries of the source, which are not always exact repeats. Identical values can stand only once. Like-named read-outs stand apart in the source and are kept apart here.

Tests used:
BRD4(BD1) [1] = target: T1, BRD4(BD1) (Homo sapiens, UniProt O60885); experiment: Isothermal Titration Calorimetry; assay type: binding; conditions: ITC; read-out: Binding affinity (Kd) to BRD4(1) by Isothermal Titration Calorimetry
Procedure: FIG. 1. Isothermal Titration Calorimetry (ITC) of 43c. Thermogram (top) and non-linear least squares fit model of the integrated data (bottom) at 15° C. of Brd4 (BD1) […] as a function of the molar ratio of ligand to the protein.
ITC was used to evaluate the thermodynamics parameters of the binding between BRD4 (BD1) and the selected compounds. Titrations were carried out on a MicroCal ITC200 microcalorimeter (GE Healthcare, Piscataway, N.J.). Each experiment was designed using a titrant concentration (protein in the syringe generally between 100 and 400 μM) set 10 to 15 times the analyte concentration (compound in the cell generally between 10 and 40 μM) and using 13 injections at 25° C. A first small injection (generally 0.2 μL) was included in the titration protocol in order to remove air bubbles trapped in the syringe prior titration. Raw data were scaled after setting the zero to the titration saturation heat value. Integrated raw ITC data were fitted to a one site non-linear least squares fit model using the MicroCal Origin plugin as implemented in Origin 7 (Origin Lab). Finally, ΔG and TΔS values were calculated from the fitted ΔH and KA values using the equations ΔG=−R.T.inKA and ΔG=ΔH−TΔS.

Brd3(BD1) = Brd3(BD1) (Homo sapiens, UniProt Q15059); experiment: HTRF BET selectivity profile, Brd3(BD1); assay type: binding; design: GST tagged bromodomain proteins were purchased from BPS Bioscience; purchased BPS Bioscience; conditions: for Ratio 3-1 vs 3-2: selectivity Brd3(BD1) vs Brd3(BD2), HTRF IC50
Procedure: (§1) HTRF assays were performed in white 384 Well Small Volume™ HiBase Polystyrene Microplates (Greiner) with a total working volume of 20 μL. Compounds were dispensed, with 100 nL per well (0.5% final DMSO), from a concentration stock of 10 mM in 100% DMSO and with serial DMSO dilutions, using an Echo® 550 robot from the Access Labcyte platform (Labcyte) and based on the transfer of liquid by acoustic wave. Then, 19.5 μL of buffer is added, using a Multidrop Combi (Thermo Fisher Scientific). […] All HTRF reagents (donor and acceptor) were purchased from CisBio Bioassays and reconstituted according to the supplier protocols. The peptide was purchased from Genic Bio Synthetic. The BRD4(1) protein was produced and purified in the laboratory.
(§2) Percentage of inhibition was calculated using the following equation: % inhibition=[(compound signal)−(min signal)]/[(max signal)−(min signal)]*100, where ‘max signal’ is the signal ratio with the compound vehicle alone (DMSO) and ‘min signal’ the signal ratio without peptide.
(§3) Selectivity profiles of bromodomain inhibitors were performed as described in HTRF screen section. […] HTRF detection reagents (EPIgeneous™ Binding Domain kits) were purchased from Cisbio Bioassays and used according to supplier's protocol. GST tagged bromodomain proteins were purchased from BPS Bioscience and histone peptide from Genic Bio Synthetic.

Brdt(BD1) = target: T2, Brdt(BD1) (Homo sapiens, UniProt Q58F21); experiment: HTRF BET selectivity profile, Brdt(BD1); assay type: binding
T2 construct: GST tagged bromodomain proteins were purchased from BPS Bioscience; purchased BPS Bioscience
Procedure: (§4) HTRF assays were performed in white 384 Well Small Volume™ HiBase Polystyrene Microplates (Greiner) with a total working volume of 20 μL. Compounds were dispensed, with 100 nL per well (0.5% final DMSO), from a concentration stock of 10 mM in 100% DMSO and with serial DMSO dilutions, using an Echo® 550 robot from the Access Labcyte platform (Labcyte) and based on the transfer of liquid by acoustic wave. Then, 19.5 μL of buffer is added, using a Multidrop Combi (Thermo Fisher Scientific). Finally, for each assay, 200 nL of master mix (protein+donor+acceptor) and 200 nL of peptide Is added in the assay wells according to the final concentration and buffer described in Table 3, using the Echo® 550 robot (Labcyte). The IC50 measurements were performed in triplicates (Table 2 and 3). All HTRF reagents (donor and acceptor) were purchased from CisBio Bioassays and reconstituted according to the supplier protocols. The peptide was purchased from Genic Bio Synthetic. The BRD4(1) protein was produced and purified in the laboratory. HTRF signals were measured, after a final incubation (3 h or 6 h or overnight at room temperature or 4° C., according to the bromodomain), using a PHERAstar FS (BMG Labtech) with an excitation filter at 337 nm and fluorescence wavelength measurement at 620 and 665 nm, an integration delay of 60 μs and an integration time of 500 μs. Results were analyzed with a two-wavelengths signal ratio: [intensity (665 nm)/intensity (620 nm)]*104.
as §2, §3

Jurkat cells = experiment: Cell Titer-Glo cell viability assay, Jurkat; assay type: cell-based; conditions: Homo sapiens, 72 h, mean of three experiments, NA = IC50 > maximal concentration used
Procedure: The human leukemia cell line Jurkat (ATCC® TIB-152) and Molm14 was maintained in RPMI-1640 medium or MEMα, respectively and supplemented both with 10% FBS at 37° C. and 5% CO2.
In antiproliferative assays, compounds were assayed for their growth inhibiting activity towards the described cancer cell lines using the Cell Titer-Glo Luminescent Cell Viability Assay as described by the manufacturer (Promega Corporation). Briefly, 10.000 cells were plated onto 96 well-plates (white with clear bottom (3610, Corning Costar)) in 90 μL media per well immediately before assay. 10 μL of compounds were added at different concentrations (ranging from 50 μM to 6 nM) to each well and cell cultures were incubated 37° C. during 72 h. Vehicle (DMSO) was used as negative control, JQ1 (a pan-BET inhibitor) was used as positive control and all compounds were tested in constant percentage of DMSO (1%). After addition of 50 μL Cell Titer-GLO, shaking 2 minutes and incubating at room temperature 10 minutes, the Luminescence was measured using a Centro luminometer LB960 (Berthold). Dose-response curves were generated and effective dose 50 values (EC50) were calculated using non-linear regression analysis (Graph Pad Prism).

BRD4(BD1) [2] = target: T1, BRD4(BD1); experiment: HTRF assay, BRD4(BD1)/histone peptide interaction; assay type: binding; design: made in house; conditions: for pIC50: HTRF; for Ratio 4-1 vs 4-2: selectivity Brd4(BD1) vs Brd4(BD2), HTRF IC50
Procedure: as §1, §2, §3

Brd2(BD1) = target: T3, Brd2(BD1) (Homo sapiens, UniProt P25440); experiment: HTRF BET selectivity profile, Brd2(BD1); assay type: binding; conditions: for Ratio 2-1 vs 2-2: selectivity Brd2(BD1) vs Brd2(BD2), HTRF IC50
T3 construct: GST tagged bromodomain proteins were purchased from BPS Bioscience; purchased BPS Bioscience
Procedure: as §1, §2, §3

Brd2(BD2) = target: T4, Brd2(BD2) (Homo sapiens, UniProt P25440); experiment: HTRF BET selectivity profile, Brd2(BD2); assay type: binding
T4 construct: GST tagged bromodomain proteins were purchased from BPS Bioscience; purchased BPS Bioscience
Procedure: as §1, §2, §3

Brd3(BD2) = target: T5, Brd3(BD2) (Homo sapiens, UniProt Q15059); experiment: HTRF BET selectivity profile, Brd3(BD2); assay type: binding
T5 construct: GST tagged bromodomain proteins were purchased from BPS Bioscience; purchased BPS Bioscience
Procedure: as §4, §2, §3

Brd4(BD2) = target: T6, Brd4(BD2) (Homo sapiens, UniProt O60885); experiment: HTRF BET selectivity profile, Brd4(BD2); assay type: binding
T6 construct: GST tagged bromodomain proteins were purchased from BPS Bioscience; purchased BPS Bioscience
Procedure: as §4, §2, §3

[3] = mean of three experiments, NA = IC50 > 50 μM, read-out: Brd4(8D1) IC50
[4] = triplicates, NA = IC50 > maximal concentration of compound used

T3 sequence (P25440 74-180 limits assumed): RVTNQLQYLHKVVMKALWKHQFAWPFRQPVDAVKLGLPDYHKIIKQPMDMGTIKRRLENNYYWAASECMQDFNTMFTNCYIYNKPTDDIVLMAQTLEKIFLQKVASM
Brd3(BD1), sequence (Q15059 34-140 limits assumed): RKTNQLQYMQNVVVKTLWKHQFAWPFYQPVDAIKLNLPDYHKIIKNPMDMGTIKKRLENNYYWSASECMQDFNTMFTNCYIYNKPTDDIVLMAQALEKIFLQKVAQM
T5 sequence (Q15059 306-415 limits assumed): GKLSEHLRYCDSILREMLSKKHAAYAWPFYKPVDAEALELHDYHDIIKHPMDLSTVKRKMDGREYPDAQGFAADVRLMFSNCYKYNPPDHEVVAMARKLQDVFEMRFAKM
T4 sequence (P25440 344-453 limits assumed): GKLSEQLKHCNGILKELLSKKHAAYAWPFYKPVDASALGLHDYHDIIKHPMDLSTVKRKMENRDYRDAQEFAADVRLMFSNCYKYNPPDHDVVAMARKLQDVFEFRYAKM

SMILES	pKd (BRD4(BD1) [1])	pIC50 (Brd3(BD1))	Ratio 3-1 vs 3-2 (Brd3(BD1))	pIC50 (Brdt(BD1))	pIC50 (Jurkat cells)	pIC50 (BRD4(BD1) [2]; [3])	pIC50 (BRD4(BD1) [2]; [4])	Ratio 4-1 vs 4-2 (BRD4(BD1) [2])	pIC50 (Brd2(BD1); read-out: Brd2(BD1) IC50)	Ratio 2-1 vs 2-2 (Brd2(BD1))	pIC50 (Brd2(BD2); read-out: Brd2(BD2) IC50)	pIC50 (Brd3(BD2))	pIC50 (Brd4(BD2))	pIC50 (Brd2(BD2))	pIC50 (Brd2(BD1))
O=C1CCCc2cc(S(=O)(=O)NCC3CCC(C(=O)NCCc4cccs4)CC3)ccc2N1 (single isomer, unassigned) [Compound 5b, 4-((2-oxo-2,3,4,5-tetrahydro-1H-benzo[b]azepine-7-sulfonamido)methyl)-N-(2-(thiophen-2-yl)ethyl)cyclohexanecarboxamide]	5.66	5.62	>21	4.84	5.03	5.42	5.42	>13	5.20	>8	–	–	–	–	–
O=C1CCCc2cc(S(=O)(=O)NCC3CCC(C(=O)NCCc4cccs4)CC3)ccc2N1 (single isomer, unassigned) [Compound 5c]	5.55	–	–	–	–	–	5.15	–	–	–	–	–	–	–	–
O=C1CCCc2cc(S(=O)(=O)C3CCC(C(=O)NCCc4ccccn4)CC3)ccc2N1 (centres unmarked) [Compound 7a]	5.46	4.65	2	5.04	–	5.02	5.02	2	4.79	0.4	5.15	4.33	4.68	–	–
O=C1CCCc2cc(S(=O)(=O)NCC3CCC(C(=O)NCCc4ccccn4)CC3)ccc2N1 (centres unmarked) [Compound 7b]	5.06	–	–	–	–	–	4.72	–	–	–	–	–	–	–	–
Cc1noc(C)c1CCNC(=O)C1CCC(CNS(=O)(=O)c2ccc3c(c2)CCCC(=O)N3)CC1 (centres unmarked) [Compound 9a]	5.47	5.30	>10	5.04	–	4.80	4.80	>3	4.99	3	4.47	–	–	–	–
Cc1noc(C)c1CNC(=O)c1ccc(CNS(=O)(=O)c2ccc3c(c2)CCCC(=O)N3)cc1 [Compound 15c]	5.66	–	–	–	–	–	5.11	–	–	–	–	–	–	–	–
Cc1noc(C)c1CCNC(=O)c1ccc(CNS(=O)(=O)c2ccc3c(c2)CCCC(=O)N3)cc1 [Compound 16a]	5.24	5.06	>6	4.90	–	4.96	4.96	>5	5.06	>6	–	–	–	–	–
CCn1c(CSc2nc3nc(C)cc(C)n3n2)nc2c1c(=O)[nH]c(=O)n2Cc1ccc(CNS(=O)(=O)c2ccc3c(c2)CCCC(=O)N3)cc1 [Compound 32b]	–	5.02	0.8	5.02	–	6.01	6.02 and 5.57	29	–	0.9	–	5.14	4.55	5.40	5.36
CCn1cnc2c1c(=O)[nH]c(=O)n2Cc1ccc(CNC(=O)c2ccc(Cn3cccc3)cc2)cc1 [Compound 33a]	4.69	–	–	–	–	–	6.43	–	–	–	–	–	–	–	–
CCn1cnc2c1c(=O)[nH]c(=O)n2Cc1ccc(CNS(=O)(=O)c2ccc(OC3CCCCC3)cc2)cc1 [Compound 43a]	–	6.59	10	6.32	–	6.69	6.69	22	6.44	>6	5.65	5.61	5.36	–	–
CCn1cnc2c1c(=O)[nH]c(=O)n2Cc1ccc(CNS(=O)(=O)c2ccc(OC3CCOCC3)cc2)cc1 [Compound 43b]	6.96	6.89	22	5.96	–	7.02	7.02	34	6.59	9	5.62	5.54	5.48	–	–
CCn1cnc2c1c(=O)[nH]c(=O)n2Cc1ccc(CNS(=O)(=O)c2ccc(N3CCOCC3)cc2)cc1 [Compound 45a]	7.22	6.79	10	6.36	–	7.06	7.06	31	6.49	3	5.97	5.79	5.57	–	–
